From patent US9604926B2 (THE UNIVERSITY OF MISSISSIPPI, priority 2007, dated 2017)
Entries after “also recorded” stand apart in the source; their conditions may differ.

Experiments:
[1] = Metabolic stability of AZ_66 in rat liver microsomes; type: in vitro ADME
Procedure: Metabolic stability of AZ_66 (1 μM) was performed in Ammonium acetate buffer (50 mM, pH 7.4) with Rat liver microsomes (0.5 mg) at 37° C. in 0.5 ml of incubation mixture. The incubation mixture composed of Ammonium acetate buffer (50 mM, pH 7.4), Magnesium chloride (3 mM), NADPH regenerating system consisting of NADP (1 mM), glucose-6-phosphate (5 mM), and glucose-6-phosphate dehydrogenase (1 Unit/mL). The Substrate and microsomes were pre incubated at 37° C. for 5 min before starting the reaction. The reactions were started by the addition of regenerating system and carried out at 37° C. in a shaking water bath for 60 min. The incubations were stopped by adding equal volume of ice cold acetonitrile at predetermined time points (0, 5, 15, 30, 60 min). The samples were centrifuged for 10 min at 4° C. and the supernatant was injected in to UPLC/MS/MS. Control incubation without NADPH was also performed and these served as 100% value. All microsomal incubations were conducted using the same lot of microsomes.
In vitro half-life and CLint: The percent of the parent compound remaining is plotted versus time. The slope of the line gives the rate constant k for the disappearance of parent compound, from which an in vitro t1/2 can be calculated. CLint can be calculated using the following formula
[formula] [V] is the incubation volume in μl and [P] is the amount of microsomal protein in the incubation.

σ-2 receptor = σ-2 receptor (Rattus norvegicus (Rat), UniProt Q5U3Y7); test: σ-2 receptor binding in rat brain homogenates ([3H]DTG plus (+)-pentazocine); conditions: read-out: Ki (nm) σ2; compound listing tables
Chain of σ-2 receptor (Q5U3Y7 whole entry): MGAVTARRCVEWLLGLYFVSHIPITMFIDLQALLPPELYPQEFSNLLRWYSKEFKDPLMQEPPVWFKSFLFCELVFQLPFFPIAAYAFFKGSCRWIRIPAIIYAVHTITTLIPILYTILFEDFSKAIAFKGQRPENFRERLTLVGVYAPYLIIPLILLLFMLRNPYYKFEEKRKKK
Procedure: Compounds were evaluated for σ-1 and σ-2 binding in rat brain homogenates. […] The assays were terminated with ice-cold 10 mM Tris-HCl, pH 8.0, followed by two washes through glass fiber filters that were pre-soaked for at least 30 min in 0.5% polyethyleneimine.

opioid receptors = test: Non-σ competition binding, opioid receptors ([3H]bremazocine); conditions: rat brain homogenates
Procedure: (§1) Compounds were tested at various non-σ target sites to evaluate selectivity because cocaine interacts with these sites (dopamine, serotonin and norepinephrine transporters) or historic “sigma” ligands interact with them (opioid, NMDA, dopamine D2, 5-HT2 receptors). The compounds were tested in competition binding assays using rat brain homogenates as previously published. […] The results were reported as Ki in nM.

Swiss Webster mice [2] = test: Expression of cocaine-induced sensitization; type: in vivo, mouse; conditions: compound on Day 15 before cocaine 10 mg/kg i.p.
Procedure: Male, Swiss Webster mice were acclimated as detailed above. For five consecutive days (Days 1-5), the mice were pretreated (i.p) with saline, then challenged 15 min later with cocaine (10 mg/kg, i.p.). The total locomotor activity (ambulatory, fine and rearing movements) of the mice was recorded for the next 30 min. A 10 day drug free period followed and on Day 15, the mice were administered saline (i.p.) or compound (0.1-20 mg/kg), followed 15 min later with cocaine (10 mg/kg, i.p.). Locomotor activity was then recorded for the next 30 min.

Swiss Webster mice [3] = test: Cocaine-induced convulsions; type: in vivo, mouse; conditions: i.p. pretreatment 15 min before cocaine 70 mg/kg i.p.
Swiss Webster mice [4] = test: Methamphetamine-induced locomotor activity; type: in vivo, mouse; conditions: i.p. pretreatment 15 min before methamphetamine 1 mg/kg i.p.
Procedure: Male, Swiss Webster mice were acclimated as detailed above. […] The total locomotor activity (ambulatory, fine and rearing movements) of the mice was recorded for the next 30 min as the number of disruptions made by them in the 16×16 photobeam grids surrounding their testing chambers.

Swiss Webster mice [5] = test: Methamphetamine-induced dopamine depletions; type: in vivo, mouse; conditions: methamphetamine 5 mg/kg x4 at 2 hr intervals, striatal dopamine one week later
Procedure: Male, Swiss Webster mice were injected (i.p.) with saline or compound (0-20 mg/kg), followed 15 min later with either saline (-METH) or methamphetamine (5 mg/kg) at 2 hr intervals, a total of four times. Striatal dopamine levels were measured one week later.

Swiss Webster mice [6] = test: Cocaine-induced locomotor activity; type: in vivo, mouse; conditions: i.p. pretreatment 15 min before cocaine 20 mg/kg i.p.
Procedure: Male, Swiss Webster mice were acclimated to the treatment room and then to the chambers of the automated activity monitoring system (San Diego Instruments, San Diego, Calif.). […] The total locomotor activity (ambulatory, fine and rearing movements) of the mice was recorded for the next 30 min as the number of disruptions made by them in the 16×16 photobeam grid of their testing chamber.

Swiss Webster mice [7] = test: In vivo cocaine studies with CM304 (cocaine-induced convulsions); conditions: 0.001-10 mg/kg i.p. 15 min before cocaine 70 mg/kg i.p., hydrochloride
[8] = type: in vitro ADME
[9] = In vitro half-life in mouse liver microsomes; type: in vitro ADME
Procedure: The reaction was initiated by adding cofactors and quenched at designated time points (0, 5, 10, 15, 30, 45, 60 min) by addition of an equal volume of ice-cold acetonitrile (ACN). […].
The basic incubation mixture consisted of 5 mM substrate, 1 mg/mL microsomal protein, 3 mM MgCl2, 1 mM NADP, 5 mM glucose-6-phosphate, 1 IU/mL glucose-6-phosphate dehydrogenase, 100 mM Tris HCl buffer (pH 7.4) in a final volume of 1 mL. The reaction was initiated by adding cofactors and quenched at designated time points (0, 5, 10, 15, 30, 45, 60 min) by addition of an equal volume of ice-cold ACN. The mixture was centrifuged at 3000 rpm for 10 min, and the supernatant was analysed by UPLC/MS/MS.

[10] = Partition coefficient (Log P / Log D), shake-flask n-octanol and water/PBS; type: physicochemical; conditions: read-out: experimental Log P O/W±SD
Procedure: Using the Shake-flask method, 47 n-Octanol and water/PBS, pH 7.4 (equal quantity) were added to a glass vial (25 ml). […] Water/PBS, pH 7.4 phase was brought into a vessel together with a Teflon-coated magnetic stirring bar. The n-octanol phase containing the known quantity of test substance was poured very carefully on top of the aqueous phase in order to avoid emulsion formation as far as possible. […] The contents were allowed to separate on standing and then centrifuged. An aliquot of aqueous layer was taken and diluted (1000 times) for quantitative analysis by UPLC/MS/MS.

59 targets (non-sigma) = test: NovaScreen and in-house profile of 59 targets; type: binding; conditions: nine targets
Procedure: Competition binding assays were performed as previously described. Briefly, radioligands were used to tag the targeted sites under standard conditions.

σ-1 receptor = σ-1 receptor (Homo sapiens (Human), UniProt Q99720); conditions: literature, cited from earlier work
Chain of σ-1 receptor (Q99720 whole entry, species assumed): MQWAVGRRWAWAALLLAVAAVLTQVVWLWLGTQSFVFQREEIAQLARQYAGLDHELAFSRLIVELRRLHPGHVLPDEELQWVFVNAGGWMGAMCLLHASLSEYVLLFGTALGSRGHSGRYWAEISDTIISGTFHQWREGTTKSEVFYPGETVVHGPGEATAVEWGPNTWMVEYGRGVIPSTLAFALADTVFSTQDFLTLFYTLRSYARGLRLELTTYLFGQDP

Swiss Webster mice [11] = test: Development of cocaine-induced sensitization; type: in vivo, mouse; conditions: pretreatment Days 1-5, cocaine 10 mg/kg i.p., test Day 15
Procedure: Male, Swiss Webster mice were acclimated as detailed above. […] The total locomotor activity (ambulatory, fine and rearing movements) of the mice was recorded for the next 30 min as the number of disruptions made by them in the 16×16 photobeam grids of their testing chamber on each of the five days. A 10 day drug-free period followed. On Day 15, all of the mice were pre-administered (i.p.) saline followed by cocaine (10 mg/kg, i.p.), and locomotor activity quantified for the next 30 min.

NMDA receptors = test: Non-σ competition binding, NMDA receptors ([3H]TCP); conditions: rat brain homogenates
Procedure: as §1

5-HT2 receptors = 5-HT2 receptors (Rattus norvegicus (Rat), UniProt P14842); test: Non-σ competition binding, 5-HT2 receptors ([3H]ketanserin); conditions: rat brain homogenates
Chain of 5-HT2 receptors (P14842 whole entry): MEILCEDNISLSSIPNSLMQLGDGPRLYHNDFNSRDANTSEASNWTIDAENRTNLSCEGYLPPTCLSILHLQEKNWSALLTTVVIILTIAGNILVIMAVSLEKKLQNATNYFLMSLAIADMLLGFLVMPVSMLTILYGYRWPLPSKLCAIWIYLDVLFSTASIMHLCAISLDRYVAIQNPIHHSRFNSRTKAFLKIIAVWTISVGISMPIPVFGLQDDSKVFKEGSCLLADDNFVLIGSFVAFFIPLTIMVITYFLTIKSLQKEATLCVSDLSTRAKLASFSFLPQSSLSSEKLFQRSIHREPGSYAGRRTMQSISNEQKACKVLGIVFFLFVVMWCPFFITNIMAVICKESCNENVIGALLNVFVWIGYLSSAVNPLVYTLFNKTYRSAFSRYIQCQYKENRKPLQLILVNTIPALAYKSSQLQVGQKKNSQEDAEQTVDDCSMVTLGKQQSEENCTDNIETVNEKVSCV
Procedure: as §1

dopamine D2 receptors = dopamine D2 receptors (Rattus norvegicus (Rat), UniProt P61169); test: Non-σ competition binding, dopamine D2 receptors ([3H](−)-sulpiride); conditions: rat brain homogenates
Chain of dopamine D2 receptors (P61169 whole entry): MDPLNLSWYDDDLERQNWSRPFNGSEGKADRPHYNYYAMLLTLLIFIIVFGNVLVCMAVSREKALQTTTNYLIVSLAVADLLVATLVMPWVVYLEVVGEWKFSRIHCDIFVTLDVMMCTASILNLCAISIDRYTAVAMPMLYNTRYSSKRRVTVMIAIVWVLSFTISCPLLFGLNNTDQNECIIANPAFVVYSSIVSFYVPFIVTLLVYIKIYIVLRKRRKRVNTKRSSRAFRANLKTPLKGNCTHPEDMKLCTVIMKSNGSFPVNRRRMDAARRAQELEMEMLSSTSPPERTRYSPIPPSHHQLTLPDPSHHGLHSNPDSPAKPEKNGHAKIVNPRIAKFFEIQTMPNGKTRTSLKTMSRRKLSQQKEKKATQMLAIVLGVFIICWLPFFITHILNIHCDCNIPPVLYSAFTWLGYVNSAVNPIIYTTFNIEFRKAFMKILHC
Procedure: as §1

mouse brain = conditions: mice, literature; cited from earlier work
[12] = biological target: σ-1 receptor (CHO cells transfected with σ-1 receptor cDNA) (Homo sapiens (Human), UniProt Q99720); test: Cell uptake studies in transfected CHO cells; conditions: 120 min
Chain of σ-1 receptor (CHO cells transfected with σ-1 receptor cDNA) (Q99720 whole entry): as the sequence (Q99720 whole entry, species assumed) above
Procedure: Control CHO cells (transfected with a vector not containing the σ-1 receptor gene—to serve as a negative control) and CHO cells transfected with a vector containing σ-1 receptor cDNA (to serve as a positive control for σ-1 receptor expression in cells) were used for the uptake assays. […] The incubated cells were subsequently washed, lysed and counted for radioactivity. All collected data were normalized for amount of protein present in each well.
Cells CHO cells were grown in Ham's F-12 medium. For uptake studies CHO cells were transfected using Lipofectamine 2000 (Invitrogen, Carlsbad, Calif., USA) and either pcDNA (empty vector, negative control) or σ-1 receptor gene (OPRS1, accession number NM_005866.2, OriGene, Rockville, Md., USA) following manufacturers directions. […] Twenty-four hours later, CHO cells were transfected with either 0.8 μg pcDNA (empty vector, control), or 0.8 μg sigma-1 DNA. […] A portion of each lysate (250 μL) was transferred to a glass tube and activity was measured with a Cobra II γ counter (Packard-Perkin Elmer, Waltham, Mass., USA). Protein content from each well was measured by Bradford assay. The same protocol was followed for (+)-[^3H]pentazocine, except the activity was measured with a liquid scintillation counter (Beckman Coulter LS 6500, Brea, Calif., USA).

rat brain = conditions: literature; cited from earlier work

Q: With `CC(CCCn1c(=O)sc2cc(F)ccc21)N1CCN(C2CCCCC2)CC1` (stereo not drawn) [AZ-66] as the compound, how does the CLint whole liver ([1]; AZ_66 1 μM, rat) read?
A: 0.002434 L/min

Q: What about the half-life at 1 μM ([1]; pH 7.4, rat liver microsomes, 1 μM, 0-30 min linear part, read-out: estimated t1/2 for disappearance) of the same compound?
A: 116 ± 15 min

Q: And the “added substrate metabolized by 60 min” value ([1]; rat liver microsomes, 60 min)?
A: about 25%

Q: What about the microsomal CLint at 1 μM ([1]; rat, rat liver microsomes, pH 7.4, read-out: estimated CLint from microsomes) of the same compound?
A: 6 µL/min/mg

Q: What about the Ki (σ-2 receptor) of the same compound?
A: 1.76 ± 0.34 nM

Q: For `S=c1sc2ccccc2n1CCCCN1CCN(C2CCCCC2)CC1` [CM156], which Ki (opioid receptors) is on record?
A: > 10000 nM

Q: What about the “attenuation of expression of cocaine-induced sensitization” value (Swiss Webster mice [2]) of the same compound?
A: significant attenuation; also recorded: attenuates the expression of cocaine-induced sensitization

Q: What about the “attenuation of cocaine-induced convulsions” value (Swiss Webster mice [3]) of the same compound?
A: significant attenuation; also recorded: attenuates the convulsive effects of cocaine

Q: What about the “attenuation of methamphetamine-induced locomotor activity” value (Swiss Webster mice [4]) of the same compound?
A: attenuated the locomotor stimulant effects of methamphetamine; also recorded: attenuates methamphetamine-induced locomotor activity

Q: And the “attenuation of methamphetamine-induced dopamine depletions (neurotoxic effects)” value (Swiss Webster mice [5])?
A: attenuated; also recorded: attenuates methamphetamine-induced dopamine depletions

Q: What about the “attenuation of cocaine-induced locomotor activity” value (Swiss Webster mice [6]) of the same compound?
A: significant attenuation; also recorded: attenuates cocaine-induced locomotor activity

Q: With `Cl.O=c1sc2cc(CCCF)ccc2n1CCN1CCCCCC1` [CM304, 3-(2-(azepan-1-yl)ethyl)-6-(3-fluoropropyl)benzo[d]thiazol-2(3H)-one hydrochloride] as the compound, how does the “attenuation of cocaine-induced convulsions by CM304” value (Swiss Webster mice [7]) read?
A: significantly attenuated cocaine-induced convulsions at all doses examined

Q: What about the “clearance in rat liver microsomes” value [8] of the same compound?
A: 0.18 mL/min/g

Q: What about the “clearance in mouse liver microsomes” value [9] of the same compound?
A: 0.55 mL/min/g

Q: And the half-life at 5 mM ([9]; mouse, microsomes, pH 7.4)?
A: 4.2 min

Q: And the logP [10]?
A: -0.15 ± 0.05

Q: And the “displacement of the radioligand at 100 nM” value (59 targets (non-sigma); 100 nM screening concentration)?
A: < 20%

Q: And the “displacement of the radioligand at 10,000 nM” value (59 targets (non-sigma); 10,000 nM screening concentration)?
A: > 50%

Q: What does the source list for `CCCc1ccc2c(c1)sc(=O)n2CCN1CCCCC1` [SN56]?
A: Selectivity Ratio for the σ-1 receptor (reported) (σ-1 receptor): > 1000; Ki (σ-1 receptor; read-out: Ki at σ-1 receptor (reported)): 0.56 nM

Q: With `CC(=O)c1ccc2c(c1)oc(=O)n2CCCCN1CCN(c2ccc(F)cc2)CC1.Cl.Cl` [SN-79] as the compound, how does the Ki (opioid receptors) read?
A: > 10000 nM

Q: What about the “attenuation of development of cocaine-induced sensitization” value (Swiss Webster mice [11]) of the same compound?
A: significant attenuation; also recorded: attenuates the development of cocaine-induced sensitization

Q: What about the Ki (NMDA receptors) of the same compound?
A: > 10000 nM

Q: And the “attenuation of expression of cocaine-induced sensitization” value (Swiss Webster mice [2])?
A: attenuates the expression of cocaine-induced sensitization

Q: What about the Ki (5-HT2 receptors) of the same compound?
A: 320 ± 16 nM

Q: What about the “attenuation of cocaine-induced convulsions” value (Swiss Webster mice [3]) of the same compound?
A: significant attenuation; also recorded: attenuates the convulsive effects of cocaine

Q: What about the Ki (dopamine D2 receptors) of the same compound?
A: > 10000 nM

Q: What about the “attenuation of cocaine-induced locomotor activity” value (Swiss Webster mice [6]) of the same compound?
A: significant attenuation; also recorded: attenuates cocaine-induced locomotor activity

Q: Which “affinity for σ-2 receptor/σ-1 receptor (reported)” value (σ-1 receptor) does the source give for `O=C(Cc1ccccc1F)NC1CCN(Cc2ccc([18F])cc2)CC1` [[^18F]FBFPA, N-[^18F]4′-fluorobenzylpiperidin-4yl-(2-fluorophenyl) acetamide, reference compound] here?
A: 44

Q: For `COc1cc(CCN2CCN(CCCc3ccccc3)CC2)ccc1OC[18F]` [[^18F]FM-SA4503], which “time of maximum uptake in the brain” value (mouse brain) is on record?
A: 30 minutes post injection

Q: Which “uptake in cells transfected with σ-1 receptor cDNA versus control CHO cells” value [12] does the source give for `O=c1sc2cc(CCC[18F])ccc2n1CCN1CCCCCC1` [[^18F]FTC-146, 6-(3-fluoropropyl)-3-(2-(azapan-1-yl)ethyl)benzo[d]thiazol-2(3H)-one] here?
A: 4 fold

Q: Which “reduction in peak uptake in rat brain over a 90 min period” value (rat brain) does the source give for `N#Cc1ccc(OCC2CCN(CC[18F])CC2)cc1` [[^18F]SFE] here?
A: 40%

Q: With `[17F]CCC1OC2(CCN(Cc3ccccc3)CC2)c2ccccc21` (stereo not drawn) [[^18F]fluspidine] as the compound, how does the “brain level at 60 minutes post injection relative to maximum (reported)” value (mouse brain) read?
A: 81 % of its maximum
